Columns and labels:
[1] = Hemolytic activity, spectrophotometric; assay type: cell-based, human; conditions: human, human red blood cells (huRBC), 5% hematocrit, 200 μg/mL, 37 °C
CCRF-CEM = experiment: cells; conditions: Homo sapiens, 48 h; for CC50: read-out: LC50
K-562 = experiment: cells; conditions: Homo sapiens, K562, 48 h; for GI50: K-562, 48 h; for CC50: read-out: LC50
MOLT-4 = experiment: cells; conditions: Homo sapiens, MOLT-4, 48 h; for CC50: read-out: LC50
A549/ATCC = experiment: cells; conditions: Homo sapiens, A549, 48 h; for CC50: read-out: LC50
EKVX = experiment: cells; conditions: Homo sapiens, 48 h; for CC50: read-out: LC50
HOP-62 = experiment: cells; conditions: Homo sapiens, HOP-62, 48 h; for CC50: read-out: LC50
HOP-92 = experiment: cells; conditions: Homo sapiens, HOP-92, 48 h; for CC50: read-out: LC50
NCI-H23 = experiment: cells; conditions: Homo sapiens, NCI-H23, 48 h; for CC50: read-out: LC50
NCI-H460 = experiment: cells; conditions: Homo sapiens, NCI-H460, 48 h; for CC50: read-out: LC50
COLO 205 = experiment: cells; conditions: Homo sapiens, COLO 205, 48 h; for CC50: read-out: LC50
HCC-2998 = experiment: cells; conditions: Homo sapiens, HCC 2998, 48 h; for CC50: read-out: LC50
HCT-116 = experiment: cells; conditions: Homo sapiens, HCT-116, 48 h; for CC50: read-out: LC50
HCT-15 = experiment: cells; conditions: Homo sapiens, HCT-15, 48 h; for CC50: read-out: LC50
HT29 = experiment: cells; conditions: Homo sapiens, HT-29, 48 h; for CC50: read-out: LC50
KM12 = experiment: cells; conditions: Homo sapiens, KM12, 48 h; for CC50: read-out: LC50
SW-620 = experiment: cells; conditions: Homo sapiens, SW-620, 48 h; for CC50: read-out: LC50
SF-268 = experiment: cells; conditions: Homo sapiens, SF-268, 48 h; for CC50: read-out: LC50
SF-295 = experiment: cells; conditions: Homo sapiens, SF-295, 48 h; for CC50: read-out: LC50
U251 = experiment: cells; conditions: Homo sapiens, U-251, 48 h; for GI50: U251, 48 h; for CC50: read-out: LC50
LOX IMVI = experiment: cells; conditions: Homo sapiens, 48 h; for CC50: read-out: LC50, LOX IMVI, 48 h
MALME-3M = experiment: cells; conditions: Homo sapiens, 48 h; for CC50: read-out: LC50
SK-MEL-2 = experiment: cells; conditions: Homo sapiens, SK-MEL-2, 48 h; for CC50: read-out: LC50
SK-MEL-28 = experiment: cells; conditions: Homo sapiens, SK-MEL-28, 48 h; for CC50: read-out: LC50
SK-MEL-5 = experiment: cells; conditions: Homo sapiens, SK-MEL-5, 48 h; for CC50: read-out: LC50
IGROV1 = experiment: cells; conditions: Homo sapiens, IGROV-1, 48 h; for CC50: read-out: LC50
OVCAR-3 = experiment: cells; conditions: Homo sapiens, OVCAR-3, 48 h; for CC50: read-out: LC50
OVCAR-5 = experiment: cells; conditions: Homo sapiens, OVCAR-5, 48 h; for CC50: read-out: LC50
SK-OV-3 = experiment: cells; conditions: Homo sapiens, SK-OV-3, 48 h; for CC50: read-out: LC50
786-0 = experiment: cells; conditions: Homo sapiens, 786-0, 48 h; for CC50: read-out: LC50
A498 = experiment: cells; conditions: Homo sapiens, A498, 48 h; for CC50: read-out: LC50
ACHN = experiment: cells; conditions: Homo sapiens, 48 h; for CC50: read-out: LC50
CAKI-1 = experiment: cells; conditions: Homo sapiens, CAKI-1, 48 h; for CC50: read-out: LC50
RXF 393 = experiment: cells; conditions: Homo sapiens, RXF 393, 48 h; for CC50: read-out: LC50
UO-31 = experiment: cells; conditions: Homo sapiens, UO-31, 48 h; for CC50: read-out: LC50
PC-3 = experiment: cells; conditions: Homo sapiens, PC-3, 48 h; for CC50: read-out: LC50
MDA-MB-231/ATCC = experiment: cells; conditions: Homo sapiens, MDA-MB-231, 48 h; for CC50: read-out: LC50
T-47D = experiment: cells; conditions: Homo sapiens, T47D, 48 h; for CC50: read-out: LC50

CN(C)c1nc(NCCNS(=O)(=O)c2ccc(C(=O)/C=C/c3ccc(C(F)(F)F)cc3)cc2)nc(Nc2ccc(F)cc2)n1 [24g]
hemolysis at 24 h, 200 µg/mL [1]: 0.8% | GI50 (CCRF-CEM): 3.79 µM | CC50 (CCRF-CEM): > 100 µM | GI50 (K-562): 2.98 µM | CC50 (K-562): 30.4 µM | GI50 (MOLT-4): 2.9 µM | CC50 (MOLT-4): 9.61 µM | GI50 (A549/ATCC): 10 µM | CC50 (A549/ATCC): 25.4 µM | GI50 (EKVX): 4.2 µM | CC50 (EKVX): 15.7 µM | GI50 (HOP-62): 13.6 µM | CC50 (HOP-62): 27.7 µM | GI50 (HOP-92): 6.15 µM | CC50 (HOP-92): 20.7 µM | GI50 (NCI-H23): 11.2 µM | CC50 (NCI-H23): 24.2 µM | GI50 (NCI-H460): 4.09 µM | CC50 (NCI-H460): 14.9 µM | GI50 (COLO 205): 11.2 µM | CC50 (COLO 205): 24.8 µM | GI50 (HCC-2998): 1.77 µM | CC50 (HCC-2998): 3.61 µM | GI50 (HCT-116): 1.68 µM | CC50 (HCT-116): 3.13 µM | GI50 (HCT-15): 3.22 µM | CC50 (HCT-15): 11.9 µM | GI50 (HT29): 1.91 µM | CC50 (HT29): 3.95 µM | GI50 (KM12): 2.38 µM | CC50 (KM12): 6 µM | GI50 (SW-620): 2.24 µM | CC50 (SW-620): 5.06 µM | GI50 (SF-268): 7.71 µM | CC50 (SF-268): 22.5 µM | GI50 (SF-295): 11.3 µM | CC50 (SF-295): 23.5 µM | GI50 (U251): 3.42 µM | CC50 (U251): 13 µM | GI50 (LOX IMVI): 1.86 µM | CC50 (LOX IMVI): 3.84 µM | GI50 (MALME-3M): 14.2 µM | CC50 (MALME-3M): 27.5 µM | GI50 (SK-MEL-2): 9.45 µM | CC50 (SK-MEL-2): 22.3 µM | GI50 (SK-MEL-28): 10.4 µM | CC50 (SK-MEL-28): 22.2 µM | GI50 (SK-MEL-5): 10.4 µM | CC50 (SK-MEL-5): 22.2 µM | GI50 (IGROV1): 12.3 µM | CC50 (IGROV1): 24.9 µM | GI50 (OVCAR-3): 2.04 µM | CC50 (OVCAR-3): 5.61 µM | GI50 (OVCAR-5): 12 µM | CC50 (OVCAR-5): 24.4 µM | GI50 (SK-OV-3): 13.7 µM | CC50 (SK-OV-3): 27.8 µM | GI50 (786-0): 10.6 µM | CC50 (786-0): 22.7 µM | GI50 (A498): 13 µM | CC50 (A498): 26.2 µM | GI50 (ACHN): 5.08 µM | CC50 (ACHN): 17.4 µM | GI50 (CAKI-1): 6.46 µM | CC50 (CAKI-1): 19.7 µM | GI50 (RXF 393): 3.7 µM | CC50 (RXF 393): 16 µM | GI50 (UO-31): 6.41 µM | CC50 (UO-31): 19.9 µM | GI50 (PC-3): 4.15 µM | CC50 (PC-3): 18.2 µM | GI50 (MDA-MB-231/ATCC): 8.38 µM | CC50 (MDA-MB-231/ATCC): 20.8 µM | GI50 (T-47D): 5.16 µM | CC50 (T-47D): 19.6 µM

CN(C)c1nc(NCCNS(=O)(=O)c2ccc(C3=Nc4c(N)nc(N)nc4NC(c4ccc(C(F)(F)F)cc4)C3)cc2)nc(N2CCOCC2)n1 (stereo not drawn) [30g]
hemolysis at 24 h, 200 µg/mL [1]: 2.4% | GI50 (CCRF-CEM): 25.9 µM | CC50 (CCRF-CEM): > 100 µM | GI50 (K-562): 29.1 µM | CC50 (K-562): > 100 µM | GI50 (MOLT-4): 17.3 µM | CC50 (MOLT-4): > 100 µM | GI50 (A549/ATCC): 51.3 µM | CC50 (A549/ATCC): > 100 µM | GI50 (EKVX): 47.2 µM | CC50 (EKVX): > 100 µM | GI50 (HOP-62): 50.7 µM | CC50 (HOP-62): > 100 µM | GI50 (HOP-92): 7.48 µM | CC50 (HOP-92): > 100 µM | GI50 (NCI-H23): 37.6 µM | CC50 (NCI-H23): > 100 µM | GI50 (NCI-H460): 36.5 µM | CC50 (NCI-H460): > 100 µM | GI50 (COLO 205): 16.5 µM | CC50 (COLO 205): 76.2 µM | GI50 (HCC-2998): 20.2 µM | CC50 (HCC-2998): > 100 µM | GI50 (HCT-116): 41.9 µM | CC50 (HCT-116): > 100 µM | GI50 (HCT-15): 30.9 µM | CC50 (HCT-15): > 100 µM | GI50 (HT29): 19.8 µM | CC50 (HT29): > 100 µM | GI50 (KM12): 37 µM | CC50 (KM12): > 100 µM | GI50 (SW-620): 46.9 µM | CC50 (SW-620): > 100 µM | GI50 (SF-268): 19.9 µM | CC50 (SF-268): > 100 µM | GI50 (SF-295): 21.1 µM | CC50 (SF-295): > 100 µM | GI50 (U251): 24.2 µM | CC50 (U251): > 100 µM | GI50 (LOX IMVI): 17.1 µM | CC50 (LOX IMVI): 64.1 µM | GI50 (MALME-3M): 19.9 µM | CC50 (MALME-3M): > 100 µM | GI50 (SK-MEL-2): 15.8 µM | CC50 (SK-MEL-2): 57.8 µM | GI50 (SK-MEL-28): 34.1 µM | CC50 (SK-MEL-28): > 100 µM | GI50 (SK-MEL-5): 15.9 µM | CC50 (SK-MEL-5): 57.1 µM | GI50 (IGROV1): 27 µM | CC50 (IGROV1): > 100 µM | GI50 (OVCAR-3): 53.9 µM | CC50 (OVCAR-3): > 100 µM | GI50 (OVCAR-5): 27 µM | CC50 (OVCAR-5): > 100 µM | GI50 (SK-OV-3): 69.7 µM | CC50 (SK-OV-3): > 100 µM | GI50 (786-0): 20.8 µM | CC50 (786-0): > 100 µM | GI50 (A498): 24.1 µM | CC50 (A498): > 100 µM | GI50 (ACHN): 64.4 µM | CC50 (ACHN): > 100 µM | GI50 (CAKI-1): 25.9 µM | CC50 (CAKI-1): > 100 µM | GI50 (RXF 393): 10.3 µM | CC50 (RXF 393): > 100 µM | GI50 (UO-31): 100 µM | CC50 (UO-31): > 100 µM | GI50 (PC-3): 24.6 µM | CC50 (PC-3): > 100 µM | GI50 (MDA-MB-231/ATCC): 16.9 µM | CC50 (MDA-MB-231/ATCC): > 100 µM | GI50 (T-47D): 21.3 µM | CC50 (T-47D): > 100 µM
